Laboratory results as given in paper PMC8037182, “Solvothermal Synthesis of Multiple Dihydropyrimidinones at a Time as Inhibitors of Eg5” (Molecules, 2021).

Key:
[1] = test system: Hela cell line; experiment: Cytotoxicity MTS assay, Hela cell line; type: cell-based; conditions: for OD490 value, Mean / OD490 value, Well 1 / OD490 value, Well 2 / OD490 value, Well 3: Hela cell line, MTS;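 as to OD490 value, Mean: blank control wells received 0.025% DMSO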;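 as to OD490 value, Well 1: blank control wells received 0.025% DMSO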;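 as to OD490 value, Well 2: blank control wells received 0.025% DMSO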;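 as to OD490 value, Well 3: blank control wells received 0.025% DMSO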
How it was run: (§1)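 Growth inhibition is measured by MTS conversion, read as absorbance at 490 nm after 2 h at 37 °C. Compounds act on cells seeded at 1000/well for 24 h across 0.5–100 µM final. Data derive from three independent duplicate experiments.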

[2] = test system: Caco-2 cell line; experiment: Cytotoxicity MTS assay, Caco-2 cell line; type: cell-based; conditions: for OD490 Mean / OD490 Well 1 / OD490 Well 2 / OD490 Well 3: Caco-2 cell line
How it was run: as §1

CCOC(=O)c1[nH]c(C2NC(=S)NC(C)=C2C(=O)OC)c(C(=O)OCC)c1C (centres unmarked) [D12]
OD490 value, Mean ([1]; 0.5μM, first assay): 2.4447 | OD490 value, Well 1 ([1]; 0.5μM, first assay): 2.5235 | OD490 value, Well 2 ([1]; 0.5μM, first assay): 2.4821 | OD490 value, Well 3 ([1]; 0.5μM, first assay): 2.3285 | OD490 value, Mean ([1]; 0.5μM, second assay): 2.5426 | OD490 value, Well 1 ([1]; 0.5μM, second assay): 2.5366 | OD490 value, Well 2 ([1]; 0.5μM, second assay): 2.2547 | OD490 value, Well 3 ([1]; 0.5μM, second assay): 2.8365 | OD490 value, Mean ([1]; 0.5μM, third assay): 2.6167 | OD490 value, Well 1 ([1]; 0.5μM, third assay): 2.6535 | OD490 value, Well 2 ([1]; 0.5μM, third assay): 2.5478 | OD490 value, Well 3 ([1]; 0.5μM, third assay): 2.6489 | OD490 value, Mean ([1]; 1μM, first assay): 2.3871 | OD490 value, Well 1 ([1]; 1μM, first assay): 2.4815 | OD490 value, Well 2 ([1]; 1μM, first assay): 2.2707 | OD490 value, Well 3 ([1]; 1μM, first assay): 2.4090 | OD490 value, Mean ([1]; 1μM, second assay): 2.5625 | OD490 value, Well 1 ([1]; 1μM, second assay): 2.5302 | OD490 value, Well 2 ([1]; 1μM, second assay): 2.5698 | OD490 value, Well 3 ([1]; 1μM, second assay): 2.5874 | OD490 value, Mean ([1]; 1μM, third assay): 2.6475 | OD490 value, Well 1 ([1]; 1μM, third assay): 2.5896 | OD490 value, Well 2 ([1]; 1μM, third assay): 2.6985 | OD490 value, Well 3 ([1]; 1μM, third assay): 2.6543 | OD490 value, Mean ([1]; 10μM, first assay): 2.6552 | OD490 value, Well 1 ([1]; 10μM, first assay): 2.5708 | OD490 value, Well 2 ([1]; 10μM, first assay): 2.6029 | OD490 value, Well 3 ([1]; 10μM, first assay): 2.7920 | OD490 value, Mean ([1]; 10μM, second assay): 2.5779 | OD490 value, Well 1 ([1]; 10μM, second assay): 2.5898 | OD490 value, Well 2 ([1]; 10μM, second assay): 2.5741 | OD490 value, Well 3 ([1]; 10μM, second assay): 2.5698 | OD490 value, Mean ([1]; 10μM, third assay): 2.6011 | OD490 value, Well 1 ([1]; 10μM, third assay): 2.5898 | OD490 value, Well 2 ([1]; 10μM, third assay): 2.6635 | OD490 value, Well 3 ([1]; 10μM, third assay): 2.5501 | OD490 value, Mean ([1]; 25μM, first assay): 2.2305 | OD490 value, Well 1 ([1]; 25μM, first assay): 2.2367 | OD490 value, Well 2 ([1]; 25μM, first assay): 2.1978 | OD490 value, Well 3 ([1]; 25μM, first assay): 2.2571 | OD490 value, Mean ([1]; 25μM, second assay): 2.5197 | OD490 value, Well 1 ([1]; 25μM, second assay): 2.5698 | OD490 value, Well 2 ([1]; 25μM, second assay): 2.5525 | OD490 value, Well 3 ([1]; 25μM, second assay): 2.4369 | OD490 value, Mean ([1]; 25μM, third assay): 2.6373 | OD490 value, Well 1 ([1]; 25μM, third assay): 2.6859 | OD490 value, Well 2 ([1]; 25μM, third assay): 2.5363 | OD490 value, Well 3 ([1]; 25μM, third assay): 2.6896 | OD490 value, Mean ([1]; 50μM, first assay): 2.5183 | OD490 value, Well 1 ([1]; 50μM, first assay): 2.3673 | OD490 value, Well 2 ([1]; 50μM, first assay): 2.6584 | OD490 value, Well 3 ([1]; 50μM, first assay): 2.5291 | OD490 value, Mean ([1]; 50μM, second assay): 2.5474 | OD490 value, Well 1 ([1]; 50μM, second assay): 2.4652 | OD490 value, Well 2 ([1]; 50μM, second assay): 2.5569 | OD490 value, Well 3 ([1]; 50μM, second assay): 2.6201 | OD490 value, Mean ([1]; 50μM, third assay): 2.5184 | OD490 value, Well 1 ([1]; 50μM, third assay): 2.4365 | OD490 value, Well 2 ([1]; 50μM, third assay): 2.5532 | OD490 value, Well 3 ([1]; 50μM, third assay): 2.5654 | OD490 value, Mean ([1]; 100μM, first assay): 2.3367 | OD490 value, Well 1 ([1]; 100μM, first assay): 2.4110 | OD490 value, Well 2 ([1]; 100μM, first assay): 2.1799 | OD490 value, Well 3 ([1]; 100μM, first assay): 2.4192 | OD490 value, Mean ([1]; 100μM, second assay): 2.4086 | OD490 value, Well 1 ([1]; 100μM, second assay): 2.3674 | OD490 value, Well 2 ([1]; 100μM, second assay): 2.4214 | OD490 value, Well 3 ([1]; 100μM, second assay): 2.4369 | OD490 value, Mean ([1]; 100μM, third assay): 2.3047 | OD490 value, Well 1 ([1]; 100μM, third assay): 2.1753 | OD490 value, Well 2 ([1]; 100μM, third assay): 2.3324 | OD490 value, Well 3 ([1]; 100μM, third assay): 2.4065 | IC50 ([1]; MTS assay, 24 h exposure): > 150 µM | OD490 Mean ([2]; 0.5μM, first assay): 0.5030 | OD490 Well 1 ([2]; 0.5μM, first assay): 0.4995 | OD490 Well 2 ([2]; 0.5μM, first assay): 0.5121 | OD490 Well 3 ([2]; 0.5μM, first assay): 0.4973 | OD490 Mean ([2]; 0.5μM, second assay): 0.6834 | OD490 Well 1 ([2]; 0.5μM, second assay): 0.5732 | OD490 Well 2 ([2]; 0.5μM, second assay): 0.7838 | OD490 Well 3 ([2]; 0.5μM, second assay): 0.6933 | OD490 Mean ([2]; 0.5μM, third assay): 0.6157 | OD490 Well 1 ([2]; 0.5μM, third assay): 0.6017 | OD490 Well 2 ([2]; 0.5μM, third assay): 0.6354 | OD490 Well 3 ([2]; 0.5μM, third assay): 0.6100 | OD490 Mean ([2]; 1μM, first assay): 0.4963 | OD490 Well 1 ([2]; 1μM, first assay): 0.4703 | OD490 Well 2 ([2]; 1μM, first assay): 0.5352 | OD490 Well 3 ([2]; 1μM, first assay): 0.4835 | OD490 Mean ([2]; 1μM, second assay): 0.6457 | OD490 Well 1 ([2]; 1μM, second assay): 0.5559 | OD490 Well 2 ([2]; 1μM, second assay): 0.7221 | OD490 Well 3 ([2]; 1μM, second assay): 0.6591 | OD490 Mean ([2]; 1μM, third assay): 0.6229 | OD490 Well 1 ([2]; 1μM, third assay): 0.6178 | OD490 Well 2 ([2]; 1μM, third assay): 0.6489 | OD490 Well 3 ([2]; 1μM, third assay): 0.6021 | OD490 Mean ([2]; 10μM, first assay): 0.5326 | OD490 Well 1 ([2]; 10μM, first assay): 0.5238 | OD490 Well 2 ([2]; 10μM, first assay): 0.5488 | OD490 Well 3 ([2]; 10μM, first assay): 0.5251 | OD490 Mean ([2]; 10μM, second assay): 0.6099 | OD490 Well 1 ([2]; 10μM, second assay): 0.585 | OD490 Well 2 ([2]; 10μM, second assay): 0.6539 | OD490 Well 3 ([2]; 10μM, second assay): 0.5909 | OD490 Mean ([2]; 10μM, third assay): 0.6194 | OD490 Well 1 ([2]; 10μM, third assay): 0.6123 | OD490 Well 2 ([2]; 10μM, third assay): 0.6244 | OD490 Well 3 ([2]; 10μM, third assay): 0.6214 | OD490 Mean ([2]; 25μM, first assay): 0.5279 | OD490 Well 1 ([2]; 25μM, first assay): 0.5868 | OD490 Well 2 ([2]; 25μM, first assay): 0.5324 | OD490 Well 3 ([2]; 25μM, first assay): 0.4646 | OD490 Mean ([2]; 25μM, second assay): 0.5376 | OD490 Well 1 ([2]; 25μM, second assay): 0.5247 | OD490 Well 2 ([2]; 25μM, second assay): 0.5145 | OD490 Well 3 ([2]; 25μM, second assay): 0.5736 | OD490 Mean ([2]; 25μM, third assay): 0.5839 | OD490 Well 1 ([2]; 25μM, third assay): 0.5863 | OD490 Well 2 ([2]; 25μM, third assay): 0.5944 | OD490 Well 3 ([2]; 25μM, third assay): 0.5711 | OD490 Mean ([2]; 50μM, first assay): 0.5705 | OD490 Well 1 ([2]; 50μM, first assay): 0.5776 | OD490 Well 2 ([2]; 50μM, first assay): 0.5840 | OD490 Well 3 ([2]; 50μM, first assay): 0.5499 | OD490 Mean ([2]; 50μM, second assay): 0.6141 | OD490 Well 1 ([2]; 50μM, second assay): 0.6452 | OD490 Well 2 ([2]; 50μM, second assay): 0.6668 | OD490 Well 3 ([2]; 50μM, second assay): 0.5302 | OD490 Mean ([2]; 50μM, third assay): 0.5882 | OD490 Well 1 ([2]; 50μM, third assay): 0.5933 | OD490 Well 2 ([2]; 50μM, third assay): 0.5725 | OD490 Well 3 ([2]; 50μM, third assay): 0.5988 | OD490 Mean ([2]; 100μM, first assay): 0.4236 | OD490 Well 1 ([2]; 100μM, first assay): 0.4210 | OD490 Well 2 ([2]; 100μM, first assay): 0.4345 | OD490 Well 3 ([2]; 100μM, first assay): 0.4153 | OD490 Mean ([2]; 100μM, second assay): 0.5967 | OD490 Well 1 ([2]; 100μM, second assay): 0.5668 | OD490 Well 2 ([2]; 100μM, second assay): 0.6735 | OD490 Well 3 ([2]; 100μM, second assay): 0.5498 | OD490 Mean ([2]; 100μM, third assay): 0.4730 | OD490 Well 1 ([2]; 100μM, third assay): 0.4925 | OD490 Well 2 ([2]; 100μM, third assay): 0.4687 | OD490 Well 3 ([2]; 100μM, third assay): 0.4578 | IC50 ([2]; MTS assay, 24 h exposure): 148 µM
